Laboratory results: US20150297738A1, “CONJUGATES COMPRISING HYDROXYALKYL STARCH AND A CYTOTOXIC AGENT AND PROCESS FOR THEIR PREPARATION” (Fresenius Kabi Deutschland GmbH, priority 2010, published 2015)
Marks after values point to notes of the source that are not given here.

Legend:
Format in all cases: in vivo, NMRI:nu/nu mice
[1] = system: human prostate carcinoma PC3; experiment: Tumor growth inhibition (RTV, T/C) in the PC3 xenograft mouse tumor model; conditions: Table 20; conjugates 1 × 75 mg/kg d6, Docetaxel 5 mg/kg d6-10; i.v.
Method: Each measurement was carried out with a group of 8 mice. The conjugates CDc1, CDc4 and CDc5 were administered once at a dosage of 75 mg/kg body weight on day 6. Taxotere® was administered 5 times at a dosage of 5 mg/kg body weight at days 6 to 10. Median values are given.
(§1) Adult male and female immunodeficient mice NMRI:nu/nu mice (TACONIC Europe, Lille Skensved, Denmark) were used throughout the study.
(§2) The animals were randomly assigned to various experimental groups with 6 to 8 mice each. At treatment initiation the ears of the animals were marked and each cage was labeled with the cage number, study number and animal number per cage.
(§3) The tumor lines A549, PC-3 and MT3 are lines which are commonly used for testing new anticancer drugs or novel therapeutic therapies. A549, PC-3 and MT3 xenografts are growing relatively fast and uniform.
(§4) Tumor cells were thawed and grown under in vitro conditions. […]
(§5) Tumor growth inhibition was used as therapeutic parameter. Additionally, body weight change was determined as signs for toxicity (particularly, potential hematological or gastrointestinal side effects).
(§6) Tumor diameters were measured twice weekly with a caliper. Tumor volumes were calculated according to V=(length×(width)^2)/2. […] At each measurement day the median and mean tumor volumes per group and also the treated to control (T/C) values in percent were calculated. […]

[2] = system: human breast carcinoma MT-3; experiment: Tumor growth inhibition (RTV, T/C) in the MT-3 xenograft mouse tumor model; conditions: for Tumor volume cm^3/d31: day 31; for Tumor volume cm^3/d27: day 27
[3] = system: human lung carcinoma A549; experiment: Tumor growth inhibition (RTV, T/C) in the A549 xenograft mouse tumor model; conditions: Table 21, conjugates 1 × 75 mg/kg d8, Docetaxel 5 mg/kg d8-12, i.v.
Method: Each measurement was carried out with a group of 8 mice. The conjugates CDc1, CDc4 and CDc5 were administered once at a dosage of 75 mg/kg body weight on day 8. Taxotere® was administered 5 times at a dosage of 5 mg/kg body weight at days 8 to 12. Median values are given.
as §1, §2, §3, §4, §5, §6

[4] = Body weight change as sign of toxicity in tumor-bearing mice (docetaxel/paclitaxel studies; MT-3, PC3, A549 models)
Method: as §5
Individual body weights of mice were determined twice weekly and mean body weight per group was related to the initial value in percent (body weight change, BWC), see tables in appendix.
Descriptive statistics was performed on the data of body weight and tumor volume. […] Statistical evaluation was performed with the U-test of Mann and Whitney with a significance level of p≦0.05, using the Windows program […] 6.
Tables 18 to 24 summarize the results for the tested Docetaxel conjugates and the reference compound Taxotere®. […] The loss of body weight is known to be an indicator of gastro-intestinal and hepatotoxicity of the tested compound.
The tables show, inter alia, i) the tested compounds, ii) the tumor volume in mice at the day the control group was sacrificed (in cm^3), iii) the lowest value of the relative tumor volume vs. the relative tumor volume of the control group (RTV T/C) together with the day, when this optimum was reached, iv) the maximum body weight loss in mice together with the day, when this minimum was reached. The loss of body weight is known to be an indicator of gastro-intestinal and hepatotoxicity of the tested compound.

[5] = system: human pancreas carcinoma ASPC-1; experiment: Tumor growth inhibition (RTV, T/C) in the ASPC-1 s.c. xenotransplantation model; conditions: Table 27, ASPC-1; day 27; 60 mg/kg/inj., treatment d 7, 15, 21
Text: At treatment initiation the ears of the animals were marked and each cage was labeled with the cage number, study number and animal number per cage.
The human pancreas carcinoma ASPC-1 was used as s.c. xenotransplantation model in immunodeficient female NMRI:nu/nu mice.
They were thawed, expanded in vitro and transplanted as cell suspension subcutaneously (s.c.) in female NMRI:nu/nu mice. The tumor line ASPC-1 is used for testing new anticancer drugs or novel therapeutic strategies. It was therefore selected for this study.
For experimental use 10^7 tumor cells/mouse from the in vitro passage were transplanted s.c. into the flank of each of 10 mice/group at day 0.
At palpable tumor size (30-100 mm^3) treatment started. The application volume was 0.2 ml/20 g mouse body weight. The test compounds, the vehicle controls and the reference compounds were all given intravenously (i.v.).
as §5
Tumor diameters were measured twice weekly with a caliper. Tumor volumes were calculated according to V=(length×(width)^2)/2. For calculation of the relative tumor volume (RTV) the tumor volumes at each measurement day were related to the day of first treatment. […]

[6] = Body weight change as sign of toxicity in mice bearing ASPC-1 xenografts (gemcitabine study); conditions: Table 27, ASPC-1; 60 mg/kg/inj., treatment d 7, 15, 21; day in parentheses
Method: as §5
Individual body weights of mice were determined twice weekly and mean body weight per group was related to the initial value in percent (body weight change, BWC).
Descriptive statistics were performed on the data of body weight and tumor volume. […] Statistical evaluation was performed with the U-test of Mann and Whitney with a significance level of p≦0.05, using the Windows program […] 6.

[7] = Table 23, conjugates 1 × 75 mg/kg d7, Docetaxel 5 mg/kg d7-11, i.v.
[8] = Table 25, MT-3, 12.5 mg/kg/inj. d 7-9, 10 mg/kg/inj. d 10-11

CC(=O)O[C@@]12CO[C@@H]1C[C@H](O)[C@@]1(C)C(=O)[C@H](O)C3=C(C)[C@@H](OC(=O)[C@H](O)[C@@H](NC(=O)OC(C)(C)C)c4ccccc4)C[C@@](O)([C@@H](OC(=O)c4ccccc4)[C@H]21)C3(C)C [Docetaxel, docetaxel]
RTV T/C (%) Optimum (at day) [1]: 2.6% | Tumor volume cm^3/d31 ([2]; Table 18, conjugates 1 × 100 mg/kg d7, Docetaxel 10 mg/kg d7, 9, 11, i.v.): 0.18 +/− 0.10 cm^3 | RTV T/C (%) Optimum (at day) ([2]; Table 18, lowest RTV vs control, conjugates 1 × 100 mg/kg d7, Docetaxel 10 mg/kg d7, 9, 11, i.v.): 10.7% | RTV T/C (%) Optimum (at day) ([2]; Table 19, conjugates 1 × 75 mg/kg d11, Docetaxel 5 mg/kg d11-15, i.v.): 54.0% | Tumor volume cm^3/d26 ([2]; Table 19, day 26, conjugates 1 × 75 mg/kg d11, Docetaxel 5 mg/kg d11-15, i.v.): 0.815 +/− 0.383* cm^3 | RTV T/C (%) Optimum (at day) ([2]; Table 22, conjugates 1 × 75 mg/kg d11, Docetaxel 5 mg/kg d11-15, i.v.): 31.8% | Tumor volume cm3/d25 ([2]; Table 22, day 25, conjugates 1 × 75 mg/kg d11, Docetaxel 5 mg/kg d11-15, i.v.): 0.517 +/− 0.202* cm3 | RTV T/C (%) Optimum (at day) [2, 7]: 43.0% | Tumor volume cm^3/d27 [2, 7]: 0.873 +/− 0.390* cm^3 | RTV T/C (%) Optimum (at day) ([2]; Table 24, MT-3, 5 mg/kg/inj., treatment d 8-12, day of optimum in parentheses below): 23.1% | Tumor volume cm^3/d27 ([2]; Table 24, MT-3, 5 mg/kg/inj., treatment d 8-12): 0.542 +/− 0.353* cm^3 | RTV T/C (%) Optimum (at day) [3]: 32.3% | Tumor volume cm^3/d42 ([3]; day 42): 0.334 +/− 0.207* cm^3 | Toxic deaths (at day) ([4]; Table 18, MT-3 model, conjugates 1 × 100 mg/kg d7, Docetaxel 10 mg/kg d7, 9, 11, i.v., 8 mice per group): 4 | Toxic death (at day) ([4]; Table 23, MT-3 model, conjugates 1 × 75 mg/kg d7, Docetaxel 5 mg/kg d7-11, i.v.): 0 | BWC [%] (at day) ([4]; mouse, in vivo, 5 mg/kg): −11%

Nc1ccn([C@@H]2O[C@H](CO)[C@@H](O)C2(F)F)c(=O)n1 [Gemcitabine, gemcitabine]
d27 [head truncated; T/C in percent] [5]: 53.3% | [%] (at day) [head truncated; BWC] [6]: −2.4 (9) %

CC(=O)O[C@H]1C(=O)[C@@]2(C)[C@H]([C@H](OC(=O)c3ccccc3)[C@]3(O)C[C@H](OC(=O)[C@H](O)[C@@H](NC(=O)c4ccccc4)c4ccccc4)C(C)=C1C3(C)C)[C@]1(OC(C)=O)CO[C@@H]1C[C@@H]2O [Paclitaxel, paclitaxel]
RTV T/C (%) Optimum (at day) [2, 8]: 21.5% | Tumor volume cm^3/d31 [2, 8]: 0.41 +/− 0.21* cm^3 | Tumor volume cm^3/d31 ([2]; Table 26, MT-3, 10 mg/kg/inj., treatment d 10-14): 0.673 +/− 0.226* cm^3 | BWC [%] (at day) ([4]; Table 25, MT-3 model, 12.5 mg/kg/inj. d 7-9, 10 mg/kg/inj. d 10-11): −15% | Toxic deaths (at day) ([4]; Table 25, MT-3 model, 12.5 mg/kg/inj. d 7-9, 10 mg/kg/inj. d 10-11, number of mice): 1 | BWC [%] (at day) ([4]; Table 26, MT-3 model, 10 mg/kg/inj., treatment d 10-14): −18% | Toxic deaths (at day) ([4]; Table 26, MT-3 model, 10 mg/kg/inj., treatment d 10-14, number of mice): 0
